This is an account of results in a melting point compilation (Tetko et al.; mined from patent text by program, amines drawn as free bases though some values may be those of a salt).

SMILES strings stand for the structures.

Usually melting point stands for the temperature of the solid-liquid transition. `Cn1c(C(F)(F)F)ccc(-c2cc(N)c(Cl)cc2F)c1=O` gave a melting point of 155 to 157 °C.

Turning to `CCOC(=NC(=O)c1ccc(Br)cc1)N1Cc2ccccc2-c2ccccc2C1`, the melting point lay in the range of 116 to 117 °C.

Compound `NS(=O)(=O)c1cc2[nH]c(C(F)F)nc2cc1Cl` showed a melting point of 233 to 235 °C.

With `C=CCn1c(C)c(C)c2cnnc(CCc3ccc(F)cc3)c21`, the melting point was 123 to 124 °C.

For `Cc1oc(C=Cc2ccc(Cl)cc2)nc1C(=O)O`, the melting point is 244 to 245 °C.

The compound `CC=C1CCC2C3CCC4CC(O)CCC4(C)C3C(N(C)C)CC12C` (stereo unspecified) gave a melting point of 59 to 61 °C.

Compound `CS(=O)(=O)c1ccc(-c2nc(C(F)(F)F)nc(NN)c2-c2ccc(Cl)cc2)cc1` had a melting point of 266 to 269 °C.

`Cc1cc(C(=O)C(=O)O)ccc1OCCOc1ccc2ccccc2c1`: the melting point was 167 to 169 °C.

As to `OCCNc1cc(Nc2ccc(Cl)cc2)ncn1`, the melting point stood at 183 °C.

In the case of `CN1CCC(c2c[nH]c3ccc(O[Si](C)(C)C(C)(C)C)cc23)CC1`, the melting point is 191 to 195 °C.

Regarding `CCOC(=O)c1cn2c3c(c(F)c(Cl)cc3c1=O)OCC2C` (stereo unspecified), the melting point lay in the range of 263 to 264 °C.

For the compound `CC(=O)NCC1CN(c2ccc(N3CCN(c4nc5ccc([N+](=O)[O-])cc5s4)CC3)c(F)c2)C(=O)O1` (stereo unspecified), the melting point fell in the range of 216 to 217 °C.

Consider `Cc1sc2ncc(CO)n2c1C`, for which the melting point fell in the range of 166 to 167 °C.

`Cc1cc(C)c(O)cn1`: the melting point was 146 to 148 °C.

As for `CC1(C)CCc2c(ccc3c2C(=O)C(Cl)=CC3=O)O1`, the melting point lay in the range of 140 to 142 °C.

Turning to `CC(=O)Nc1cc2c(cc1[N+](=O)[O-])C(CC(C)C)C(=O)N2` (stereo unspecified), the melting point is 192 to 197 °C.

`COC(=O)CSc1nc(Nc2ccc(N3CCOCC3)cc2)ncc1[N+](=O)[O-]` showed a melting point of 188 to 190 °C.

`N=C(N)Nc1nc(CSCCNC=NS(=O)(=O)c2ccc(Br)cc2)cs1` came in with a melting point of 142 to 146 °C.

As for `O=C1OC(CCl)CN1c1ccc(Cl)cc1` (stereo unspecified), the melting point lay in the range of 119 to 120 °C.

`CCOC(=O)C1=C(COCCNC(N)=S)NC(C)=C(C(=O)OC)C1c1cccc(Cl)c1Cl` (stereo unspecified) came in with a melting point of 198 °C.

Consider `CCCCOc1cc(C(=O)O)cc(N)c1C(=O)c1ccccc1`, for which the melting point lay within 202 to 204 °C.

In turn, `COc1cc(OC)c2c(C)cc(=O)[nH]c2c1` returned a melting point of 239 to 240 °C.

Turning to `Cc1nnc2n1-c1ccc(Cl)cc1N(c1ccccc1)C(=O)C2`, the melting point lay within 297 to 298 °C.

`COc1ccc2[nH]c(-c3ccccc3)cc2c1`: the melting point lay in the range of 148 to 149 °C.

Compound `CS(=O)(=O)c1ccc(-c2cnn(Cc3ccccn3)c(=O)c2-c2ccc(F)cc2)cc1` returned a melting point of 182 to 184 °C.

`CC(CNS(C)(=O)=O)n1nnc2cc3c(=O)n(C4CC4)nnc3cc2c1=O` (stereo unspecified): the melting point was 195 to 197 °C.

For the compound `COC(=O)c1ccccc1C(=O)c1ccc(O)cc1`, the melting point was 147 to 149 °C.

With `Cc1ccccc1Nc1c([N+](=O)[O-])cnc2ccccc12`, the melting point fell in the range of 137 to 138 °C.

Compound `CCCCCCCCCCCCCCCCCC(=O)NCC(C)(C)COC(=O)CCCCCCCCCCCCCCCCC` registered a melting point of 60 to 62 °C.

`O=C(O)c1cnc(-c2nnn[nH]2)c2ccccc12` yielded a melting point of 292 °C.

Take `O=c1cc(-c2ccccc2SCc2ccccc2)[nH]c2ccc(Cl)cc12`: the melting point lay in the range of 198 to 202 °C.

Regarding `CC(C)n1nc(-c2cc(C#N)cnc2-c2ccccc2)ccc1=O`, the melting point was in the range of 133 to 135 °C.

Consider `CN(C)C(=O)Nc1c(C(=O)c2cccc(Cl)c2)[nH]c2cc(Cl)ccc12`, for which the melting point was in the range of 214 to 221 °C.

Take `Cc1cccc(C(=O)c2ccc(OCCOc3ccc(C(=O)c4cccc(C)c4)cc3)cc2)c1`: the melting point was in the range of 164 to 167 °C.

As for `O=CN1CCC(C(=O)N2CCN3C(=O)OC(c4ccccc4)(c4ccccc4)C3C2)CC1` (stereo unspecified), the melting point fell in the range of 133 to 136 °C.

Turning to `Cc1[nH]cnc1C=CC(=O)c1cn2c3c(cccc13)CCC2`, the melting point fell in the range of 108 to 110 °C.
